What was measured:
Experiment in all cases: relative viability (nuclei count vs DMSO), 5 days (fraction); higher = more cells survive
[1] = system: NCI-H1944
In short: (§1)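 Lung cancer cell lines in 1536-well plates were dosed by pin tool the day after seeding, either with one drug alone or with a fixed anchor-drug dose plus five library-drug doses (not always all listed) in √10 steps. After 5 days, cells were fixed and their nuclei stained in one step (final 0.05% Triton X-100, 1% formaldehyde, 1 ug/ml Hoechst), then counted on 4× images. Relative viability is the nuclei count in treated wells divided by that in vehicle wells. Values are medians of duplicate plates.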

[2] = system: NCI-H1395
In short: as §1

[3] = system: NCI-H460
In short: as §1

[4] = system: UMC-11
In short: as §1

[5] = system: LOU-NH91
In short: as §1

[6] = system: RERF-LC-KJ
In short: as §1

[7] = system: NCI-H1755
In short: as §1

[8] = system: LU99A
In short: as §1

[9] = system: ABC-1
In short: as §1

[10] = system: NCI-H1793
In short: as §1

[11] = system: NCI-H1651
In short: as §1

[12] = system: NCI-H3122
In short: as §1

[13] = system: NCI-H2228
In short: as §1

[14] = system: CAL-12T
In short: as §1

[15] = system: NCI-H2087
In short: as §1

[16] = system: NCI-H2405
In short: as §1

[17] = system: NCI-H2170
In short: as §1

[18] = system: ChaGo-K-1
In short: as §1

[19] = system: HCC-78
In short: as §1

[20] = system: LC-2-ad
In short: as §1

[21] = system: HCC-366
In short: as §1

[22] = system: PC-3 [JPC-3]
In short: as §1

Structure (SMILES): Cc1sc2c(c1C)C(c1ccc(Cl)cc1)=N[C@@H](CC(=O)OC(C)(C)C)c1nnc(C)n1-2 [JQ1] + COc1cc2c(Oc3ccc(NC(=O)C4(C(=O)Nc5ccc(F)cc5)CC4)cc3F)ccnc2cc1OCCCN1CCOCC1 [Foretinib] (partner 0.25 µM)
- relative viability ([1]; first compound 0.04 µM): 0.797
- relative viability ([1]; first compound 0.1265 µM): 0.792
- relative viability ([1]; first compound 0.4 µM): 0.513
- relative viability ([1]; first compound 1.265 µM): 0.441
- relative viability ([1]; first compound 4 µM): 0.425
- relative viability ([2]; first compound 0.04 µM): 0.716
- relative viability ([2]; first compound 0.1265 µM): 0.955
- relative viability ([2]; first compound 0.4 µM): 1
- relative viability ([2]; first compound 1.265 µM): 0.732
- relative viability ([2]; first compound 4 µM): 0.525
- relative viability ([3]; first compound 0.04 µM): 0.901
- relative viability ([3]; first compound 0.1265 µM): 0.932
- relative viability ([3]; first compound 0.4 µM): 0.628
- relative viability ([3]; first compound 1.265 µM): 0.12
- relative viability ([3]; first compound 4 µM): 0.112
- relative viability ([4]; first compound 0.04 µM): 0.954
- relative viability ([4]; first compound 0.1265 µM): 0.663
- relative viability ([4]; first compound 0.4 µM): 0.372
- relative viability ([4]; first compound 1.265 µM): 0.286
- relative viability ([4]; first compound 4 µM): 0.238
- relative viability ([5]; first compound 0.04 µM): 0.944
- relative viability ([5]; first compound 0.1265 µM): 0.777
- relative viability ([5]; first compound 0.4 µM): 0.618
- relative viability ([5]; first compound 1.265 µM): 0.625
- relative viability ([5]; first compound 4 µM): 0.482
- relative viability ([6]; first compound 0.04 µM): 0.939
- relative viability ([6]; first compound 0.1265 µM): 0.88
- relative viability ([6]; first compound 0.4 µM): 0.942
- relative viability ([6]; first compound 1.265 µM): 0.748
- relative viability ([6]; first compound 4 µM): 0.555
- relative viability ([7]; first compound 0.04 µM): 0.896
- relative viability ([7]; first compound 0.1265 µM): 0.831
- relative viability ([7]; first compound 0.4 µM): 0.945
- relative viability ([7]; first compound 1.265 µM): 0.793
- relative viability ([7]; first compound 4 µM): 0.634
- relative viability ([8]; first compound 0.04 µM): 0.821
- relative viability ([8]; first compound 0.1265 µM): 0.85
- relative viability ([8]; first compound 0.4 µM): 0.559
- relative viability ([8]; first compound 1.265 µM): 0.374
- relative viability ([8]; first compound 4 µM): 0.304
- relative viability ([9]; first compound 0.04 µM): 0.916
- relative viability ([9]; first compound 0.1265 µM): 0.859
- relative viability ([9]; first compound 0.4 µM): 0.89
- relative viability ([9]; first compound 1.265 µM): 0.395
- relative viability ([9]; first compound 4 µM): 0.399
- relative viability ([10]; first compound 0.04 µM): 0.65
- relative viability ([10]; first compound 0.1265 µM): 0.788
- relative viability ([10]; first compound 0.4 µM): 0.713
- relative viability ([10]; first compound 1.265 µM): 0.728
- relative viability ([10]; first compound 4 µM): 0.483
- relative viability ([11]; first compound 0.04 µM): 0.904
- relative viability ([11]; first compound 0.1265 µM): 0.787
- relative viability ([11]; first compound 0.4 µM): 0.625
- relative viability ([11]; first compound 1.265 µM): 0.352
- relative viability ([11]; first compound 4 µM): 0.365
- relative viability ([12]; first compound 0.04 µM): 1.04
- relative viability ([12]; first compound 0.1265 µM): 0.814
- relative viability ([12]; first compound 0.4 µM): 0.766
- relative viability ([12]; first compound 1.265 µM): 0.698
- relative viability ([12]; first compound 4 µM): 0.532
- relative viability ([13]; first compound 0.04 µM): 0.806
- relative viability ([13]; first compound 0.1265 µM): 0.766
- relative viability ([13]; first compound 0.4 µM): 0.647
- relative viability ([13]; first compound 1.265 µM): 0.481
- relative viability ([13]; first compound 4 µM): 0.383
- relative viability ([14]; first compound 0.04 µM): 1.16
- relative viability ([14]; first compound 0.1265 µM): 0.747
- relative viability ([14]; first compound 0.4 µM): 0.858
- relative viability ([14]; first compound 1.265 µM): 0.351
- relative viability ([14]; first compound 4 µM): 0.307
- relative viability ([15]; first compound 0.04 µM): 1.06
- relative viability ([15]; first compound 0.1265 µM): 0.997
- relative viability ([15]; first compound 0.4 µM): 0.766
- relative viability ([15]; first compound 1.265 µM): 0.518
- relative viability ([15]; first compound 4 µM): 0.479
- relative viability ([16]; first compound 0.04 µM): 1.08
- relative viability ([16]; first compound 0.1265 µM): 1.02
- relative viability ([16]; first compound 0.4 µM): 1.03
- relative viability ([16]; first compound 1.265 µM): 0.835
- relative viability ([16]; first compound 4 µM): 0.744
- relative viability ([17]; first compound 0.04 µM): 1.03
- relative viability ([17]; first compound 0.1265 µM): 0.928
- relative viability ([17]; first compound 0.4 µM): 0.837
- relative viability ([17]; first compound 1.265 µM): 0.762
- relative viability ([17]; first compound 4 µM): 0.626
- relative viability ([18]; first compound 0.04 µM): 0.95
- relative viability ([18]; first compound 0.1265 µM): 0.827
- relative viability ([18]; first compound 0.4 µM): 0.929
- relative viability ([18]; first compound 1.265 µM): 0.7
- relative viability ([18]; first compound 4 µM): 0.583
- relative viability ([19]; first compound 0.04 µM): 0.557
- relative viability ([19]; first compound 0.1265 µM): 0.506
- relative viability ([19]; first compound 0.4 µM): 0.495
- relative viability ([19]; first compound 1.265 µM): 0.509
- relative viability ([19]; first compound 4 µM): 0.453
- relative viability ([20]; first compound 0.04 µM): 0.809
- relative viability ([20]; first compound 0.1265 µM): 0.625
- relative viability ([20]; first compound 0.4 µM): 0.538
- relative viability ([20]; first compound 1.265 µM): 0.359
- relative viability ([20]; first compound 4 µM): 0.266
- relative viability ([21]; first compound 0.04 µM): 0.994
- relative viability ([21]; first compound 0.4 µM): 0.827
- relative viability ([21]; first compound 1.265 µM): 0.359
- relative viability ([21]; first compound 4 µM): 0.266
- relative viability ([22]; first compound 0.04 µM): 1.06
- relative viability ([22]; first compound 0.1265 µM): 1.05
- relative viability ([22]; first compound 0.4 µM): 0.75
- relative viability ([22]; first compound 1.265 µM): 0.74
- relative viability ([22]; first compound 4 µM): 0.48

From the supplement of paper PMC10307832
